Test results as given in ChEMBL document CHEMBL4196124, “Reverse Hydroxamate Inhibitors of Bone Morphogenetic Protein 1” (ACS Med Chem Lett, 2018).

What was measured:
[1] = target: T1, Bone morphogenetic protein 1 (Homo sapiens, UniProt P13497); assay: Inhibition of recombinant human N-terminal 6His/flag-tagged BMP1 (121 to 721 residues) expressed in CHO cells using ((5-FAM)-ELIDQYDVQRDDSSDGSLED-K(5,6 TAMRA)-CONH2) as substrate preincubated for 10 mins followed by substrate addition measured after 60 mins
T1 sequence (P13497 whole entry): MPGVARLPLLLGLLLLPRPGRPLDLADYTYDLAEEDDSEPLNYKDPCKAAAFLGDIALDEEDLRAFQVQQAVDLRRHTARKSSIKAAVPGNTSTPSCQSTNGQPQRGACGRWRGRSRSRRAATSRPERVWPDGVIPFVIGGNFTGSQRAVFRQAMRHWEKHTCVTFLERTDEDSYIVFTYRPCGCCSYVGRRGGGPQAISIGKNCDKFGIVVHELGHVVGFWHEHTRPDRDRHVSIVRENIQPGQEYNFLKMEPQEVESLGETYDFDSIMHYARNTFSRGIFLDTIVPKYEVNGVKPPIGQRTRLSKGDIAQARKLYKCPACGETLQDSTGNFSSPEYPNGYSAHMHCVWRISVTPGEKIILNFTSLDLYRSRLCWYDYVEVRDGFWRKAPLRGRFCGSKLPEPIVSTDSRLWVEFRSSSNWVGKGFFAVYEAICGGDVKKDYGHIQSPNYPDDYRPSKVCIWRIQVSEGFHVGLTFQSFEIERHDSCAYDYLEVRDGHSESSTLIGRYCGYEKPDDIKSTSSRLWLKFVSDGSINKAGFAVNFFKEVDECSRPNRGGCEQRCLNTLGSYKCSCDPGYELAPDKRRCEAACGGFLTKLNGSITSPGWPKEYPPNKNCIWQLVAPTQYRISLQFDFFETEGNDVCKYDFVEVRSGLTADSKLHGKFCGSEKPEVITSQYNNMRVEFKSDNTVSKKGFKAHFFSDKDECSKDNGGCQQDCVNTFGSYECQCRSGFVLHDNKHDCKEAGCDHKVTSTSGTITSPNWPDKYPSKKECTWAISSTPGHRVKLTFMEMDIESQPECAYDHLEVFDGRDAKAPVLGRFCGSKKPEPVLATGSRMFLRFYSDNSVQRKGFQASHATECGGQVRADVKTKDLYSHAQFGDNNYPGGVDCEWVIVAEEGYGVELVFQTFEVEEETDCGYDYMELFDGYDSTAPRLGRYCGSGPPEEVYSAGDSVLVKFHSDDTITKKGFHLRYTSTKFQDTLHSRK

[2] = target: Macrophage metalloelastase (Homo sapiens, UniProt P39900); assay: Inhibition of MMP12 (unknown origin)
Chain of Macrophage metalloelastase (P39900 whole entry): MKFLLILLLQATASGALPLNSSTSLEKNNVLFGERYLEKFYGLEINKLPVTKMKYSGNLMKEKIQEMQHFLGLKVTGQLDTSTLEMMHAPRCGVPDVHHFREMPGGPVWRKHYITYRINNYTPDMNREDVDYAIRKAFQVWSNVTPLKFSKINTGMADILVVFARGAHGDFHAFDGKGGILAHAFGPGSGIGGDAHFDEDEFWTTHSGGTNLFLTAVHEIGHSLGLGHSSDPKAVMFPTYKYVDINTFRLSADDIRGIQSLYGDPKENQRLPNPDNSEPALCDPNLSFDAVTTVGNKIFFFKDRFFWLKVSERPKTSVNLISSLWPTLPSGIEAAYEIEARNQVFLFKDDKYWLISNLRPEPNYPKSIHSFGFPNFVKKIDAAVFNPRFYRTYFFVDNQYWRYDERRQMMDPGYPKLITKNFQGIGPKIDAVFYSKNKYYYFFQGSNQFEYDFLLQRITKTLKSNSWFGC

[3] = target: T2, Tolloid-like protein 1 (Homo sapiens, UniProt O43897); assay: Inhibition of recombinant human full length TLL1 using ((5-FAM)-ELIDQYDVQRDDSSDGSLED-K(5,6 TAMRA)-CONH2) as substrate preincubated for 10 mins followed by substrate addition measured after 60 mins
T2 sequence (O43897 whole entry): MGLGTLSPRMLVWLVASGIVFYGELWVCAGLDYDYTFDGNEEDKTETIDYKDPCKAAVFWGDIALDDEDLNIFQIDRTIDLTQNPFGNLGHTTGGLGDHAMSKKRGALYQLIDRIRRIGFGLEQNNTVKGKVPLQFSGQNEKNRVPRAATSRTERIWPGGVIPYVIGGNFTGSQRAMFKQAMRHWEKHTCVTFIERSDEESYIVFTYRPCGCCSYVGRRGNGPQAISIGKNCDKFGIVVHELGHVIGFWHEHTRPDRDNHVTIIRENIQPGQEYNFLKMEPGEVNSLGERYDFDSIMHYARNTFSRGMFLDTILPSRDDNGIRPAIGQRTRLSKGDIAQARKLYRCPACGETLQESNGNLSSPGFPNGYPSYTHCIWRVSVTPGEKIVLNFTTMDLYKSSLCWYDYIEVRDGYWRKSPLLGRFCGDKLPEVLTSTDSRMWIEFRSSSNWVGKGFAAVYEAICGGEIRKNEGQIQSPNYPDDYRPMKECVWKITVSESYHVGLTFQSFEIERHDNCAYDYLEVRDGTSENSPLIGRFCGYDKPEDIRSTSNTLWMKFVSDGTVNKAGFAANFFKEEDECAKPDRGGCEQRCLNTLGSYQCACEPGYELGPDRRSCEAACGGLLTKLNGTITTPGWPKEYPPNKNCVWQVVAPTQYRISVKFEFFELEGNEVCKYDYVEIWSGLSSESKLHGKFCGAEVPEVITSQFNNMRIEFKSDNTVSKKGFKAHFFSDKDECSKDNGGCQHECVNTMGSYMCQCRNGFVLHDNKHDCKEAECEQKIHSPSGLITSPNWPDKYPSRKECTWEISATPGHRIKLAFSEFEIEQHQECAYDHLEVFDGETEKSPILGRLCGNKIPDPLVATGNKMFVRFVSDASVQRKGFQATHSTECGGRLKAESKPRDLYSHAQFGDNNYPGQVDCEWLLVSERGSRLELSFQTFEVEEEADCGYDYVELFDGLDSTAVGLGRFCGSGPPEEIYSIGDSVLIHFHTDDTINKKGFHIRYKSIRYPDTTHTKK

[4] = species on record: Homo sapiens; assay: Selectivity ratio of IC50 for ACE2 (unknown origin) to IC50 for recombinant human N-terminal 6His/flag-tagged BMP1 (121 to 721 residues) expressed in CHO cells; format: cell-based
[5] = species on record: Homo sapiens; assay: Selectivity ratio of IC50 for recombinant human C-terminal MMP1 (81 to 249 residues) catalytic domain expressed in Escherichia coli to IC50 for recombinant human N-terminal 6His/flag-tagged BMP1 (121 to 721 residues) expressed in CHO cells
[6] = species on record: Homo sapiens; assay: Selectivity ratio of IC50 for MMP8 (unknown origin) to IC50 for recombinant human N-terminal 6His/flag-tagged BMP1 (121 to 721 residues) expressed in CHO cells; format: cell-based
[7] = species on record: Homo sapiens; assay: Selectivity ratio of IC50 for recombinant human C-terminal MMP12 (84 to 255 residues) catalytic domain expressed in Escherichia coli to IC50 for recombinant human N-terminal 6His/flag-tagged BMP1 (121 to 721 residues) expressed in CHO cells

- IC50 [1]: 32 nM
- IC50 [2]: 10000 nM
- IC50 [3]: 100 nM
Structure (SMILES): CCCCC[C@@H](C(=O)NCNC(=O)c1ccc(-c2ccccc2)o1)[C@@H](CC)N(O)C=O
- Ratio IC50 [4]: > 30
- Ratio IC50 [5]: > 30
- Ratio IC50 [6]: > 30
- Ratio IC50 [7]: > 30
